# Molecular target: T1, bovine serum albumin (BSA) (Bos taurus, UniProt P02769)
# T1 construct: gene ALB; commercial fatty acid-free native BSA (Shanghai Shenhang Biotechnology), mature, 583 residues, untagged; PDB 4JK4 used only for docking
# Test: intrinsic fluorescence quenching (ex […] nm)
# Format: binding
# Details: 297 K, pH 7.4, 0.05 M Tris-HCl, 0.1 M NaCl, 5 µM BSA; double-log
# T1 sequence (P02769 25-607): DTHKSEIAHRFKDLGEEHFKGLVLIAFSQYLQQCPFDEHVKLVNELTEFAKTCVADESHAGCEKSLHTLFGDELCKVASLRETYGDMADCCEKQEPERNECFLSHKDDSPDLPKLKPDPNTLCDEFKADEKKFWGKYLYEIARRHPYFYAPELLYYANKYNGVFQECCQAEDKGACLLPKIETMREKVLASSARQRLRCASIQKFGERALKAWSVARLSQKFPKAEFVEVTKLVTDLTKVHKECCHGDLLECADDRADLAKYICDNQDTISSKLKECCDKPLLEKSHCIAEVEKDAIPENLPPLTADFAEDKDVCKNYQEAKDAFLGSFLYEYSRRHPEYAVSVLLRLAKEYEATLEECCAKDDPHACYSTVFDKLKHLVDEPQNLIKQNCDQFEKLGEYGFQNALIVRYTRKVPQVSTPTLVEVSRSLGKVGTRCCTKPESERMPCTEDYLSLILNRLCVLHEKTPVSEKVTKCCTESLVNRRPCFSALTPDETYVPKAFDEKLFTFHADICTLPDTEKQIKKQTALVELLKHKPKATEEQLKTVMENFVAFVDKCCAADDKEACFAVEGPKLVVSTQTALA
row,SMILES,Kb (×10^5 L.mol^-1)
1,"CC(=O)O[C@H]1[C@H](Oc2c(-c3ccc(O)cc3)oc3cc(O[C@@H]4O[C@@H](C)[C@H](O)[C@@H](O)[C@H]4O)cc(O)c3c2=O)O[C@@H](C)[C@H](O)[C@H]1O [compound 5, kaempferol 3-O-α-L-(2-O-acetyl) rhamopyranoside-7-O-α-L-rhamnopyranoside]",0.96 × 10^5 L·mol^−1
2,"CC(=O)O[C@@H]1[C@@H](O)[C@@H](O)[C@H](Oc2cc(O)c3c(=O)c(O[C@@H]4O[C@@H](C)[C@H](OC(C)=O)[C@@H](OC(C)=O)[C@H]4O)c(-c4ccc(O)cc4)oc3c2)O[C@H]1C [compound 1, kaempferol3-O-α-L-(3,4-O-di-acetyl) rhamopyranoside-7-O-α-L-(4-O-acetyl) rhamnopyranoside]",0.41 × 10^5 L·mol^−1
3,"CC(=O)O[C@@H]1[C@@H](OC(C)=O)[C@@H](O)[C@H](Oc2c(-c3ccc(O)cc3)oc3cc(O[C@@H]4O[C@@H](C)[C@H](O)[C@@H](O)[C@H]4O)cc(O)c3c2=O)O[C@H]1C [compound 2, crassirhizomoside B]",0.57 × 10^5 L·mol^−1
4,"CC(=O)O[C@@H]1[C@@H](O)[C@H](C)O[C@@H](Oc2c(-c3ccc(O)cc3)oc3cc(O[C@@H]4O[C@@H](C)[C@H](O)[C@@H](O)[C@H]4O)cc(O)c3c2=O)[C@@H]1O [compound 4, kaempferol 3-O-α-L-(3-O-acetyl) rhamopyranoside-7-O-α-L-rhamnopyranoside]",1.06 × 10^5 L·mol^−1
